In article PMC2074382 (British Journal of Cancer, 1996):
Counter-ions that a name gives are not always drawn.

Tests used:
solid tumour = experiment: Tumour response (WHO criteria) in phase I study; type: in vivo, human
Source text: British Journal of Cancer (1996) 73, 744-750 O (C? 1996 Stockton Press All rights reserved 0007-0920/96 $12.00 Phase I and pharmacological study of the new topoisomerase I inhibitor G1147211, using a daily x 5 intravenous administration CJH Gerrits', GJ Creemers', JHM Schellens', P Wissel2, AS Th Planting', R Kunka2, K Selinger2, M de Boer-Dennert', Y Marijnen3, M Harteveld' and J Verweijl 'Department of Medical Oncology, Rotterdam Cancer Institute, Rotterdam, The Netherlands; 2Glaxo Wellcome Inc, Department of Clinical Pharmacology, NC, USA; 3Glaxo Wellcome Inc, Department of Clinical Research, Zeist, The Netherlands. Summary Topoisomerase I inhibitors are interesting anti-cancer agents with a novel mechanism of action. […] In subsequent patient cohorts the dose was escalated from 0.3 to 1.5 mg m-2 day-'. Pharmacokinetics analysis was performed on days 1 and 4 of the first course using a validated high- performance liquid chromatographic assay and non-compartmental methods. […] Its further development was stopped because of unpredictable and severe myelosuppression, gastrointestinal toxicity and haemorrhagic cystitis. In the late 1980s two discoveries brought about a renewal of interest in CPT; firstly, topoisomerase I was identified as the single cellular target of CPT (Hsiang et al., 1985; Hsiang and Liu, 1988) and, secondly, an overexpression of topoisomerase I was found in various tumour cell lines but not in normal tissues (Giovanella et al., 1989; Hirabayaski et al., 1992; Potmesil et al., 1988). Topoisomerase I is a nuclear enzyme that resolves topological problems of the torsionally strained (supercoiled) DNA (Slichenmyer et al., 1993). This is achieved by forming a covalent adduct between topoisome- rase I and the DNA, termed the cleavable complex. This catalytic intermediate creates single-strand DNA breaks, allowing the DNA molecule to rotate around the intact DNA strand at the cleavage site, leading to a relaxation of the DNA molecule and in this way replication, transcription and other DNA functions can proceed. These enzyme- bridged breaks are then resealed by topoisomerase I. CPT stabilises the cleavable complexes, thereby preventing resealing of single-strand DNA breaks in the presence of the drug (Covey et al., 1989; D'Arpa and Liu, 1989; Eng et al., 1988). Cytotoxicity is specific to the S-phase of the cell cycle because the double-strand breaks that occur during this phase are more difficult to repair in the presence of the drug (Horwitz and Horwitz, 1973). […]

[1] = animals, intravenous route; cited from earlier work

## CC[C@@]1(O)C(=O)OCc2c1cc1n(c2=O)Cc2c-1nc1cc3c(cc1c2CN1CCN(C)CC1)OCCO3 [GI147211, [7 - (methylpiperazinomethylene) - 10,11 - ethylene-dioxy-20(S)] camptothecin dihydrochloride]
Solid tumour; 18 evaluable patients
  stable disease, patients: ten
Solid tumour; liver metastasis of leiomyosarcoma of the stomach, after two courses
  response in leiomyosarcoma patient: minor response
Solid tumour; metastatic colorectal cancer resistant to 5-FU/folinic acid, 18 evaluable patients
  partial response, patients: One
Solid tumour; partial response, colorectal cancer
  duration of remission: 6 weeks
[1]
  main and dose-limiting toxicity: myelosuppression
